Data reported in patent publication US20210060165A1, “Light-Controlled Antibacterial Agent Composed of Linear Cationic Oligopeptide and Multi-arm B-Cyclodextrin” (JILIN UNIVERSITY, priority 2019, published 2021).

Experiments:
Assay in all cases: growth curve (OD600) in LB liquid culture medium
Format in all cases: cell-based
Settings in all cases: separate or as aggregates
[1] = tested on: Escherichia coli (BL21-gold (DE3))
Procedure: (§1) Preparation of LB liquid culture medium: dissolving 1-10 g of peptone, 0.5-5 g of yeast extract and 1-10 g of sodium chloride in 100-980 mL of redistilled water, and performing high temperature sterilization on same at 121° C. for 20 min to obtain a fresh LB liquid culture medium.
(§2) Picking bacterial strains (gram-negative bacteria such as Escherichia coli, […], Pseudomonas aeruginosa, and gram-positive bacteria such as Staphylococcus aureus) into 20-30 mL of (containing 20-25 μL of ampicillin) the above fresh LB liquid culture medium, placing in a constant temperature shaker with a revolution of 180 rpm and a temperature of 37° C. for culture for 11-15 h, thus obtaining the LB culture solution containing bacterial strains; then diluting the above LB culture solution containing bacteria strains with a blank LB liquid culture medium to an OD600 (OD600 refers to the light absorption value of the bacteria strain culture solution at 600 nm) about 0.035.
(§3) Antibacterial property of cross-linked aggregates in LB liquid culture medium: adding the diluted LB culture solution (the LB culture solution contains bacteria and ampicillin) containing bacterial strains into a clean test tube, adding the aqueous solution of the light-controlled antibacterial agent composed of the linear cationic oligopeptide and multi-arm β-cyclodextrin into the test tube, and controlling the concentration of the final linear cationic oligopeptide to 15-60 μM. Placing the prepared sample in the constant temperature shaker at 37° C. for culture, and controlling the revolution of the shaker to be 180 rpm. Determining the corresponding optical density (OD600) of the culture solution at different times (0-540 min) with a nucleic acid protein analyzer to evaluate the antibacterial activity of the cross-linked aggregates.
(§4) Preparation of LB liquid culture medium: dissolving 10 g of peptone, 5 g of yeast extract and 10 g of sodium chloride in 980 mL of redistilled water, and performing high temperature sterilization on same at 121° C. for 20 min to obtain a fresh LB liquid culture medium. Picking Escherichia coli (BL21-gold (DE3),) into 25 mL (containing 25 μL of ampicillin) of the above fresh LB liquid culture medium, placing in a constant temperature shaker with a revolution of 180 rpm and a temperature of 37° C. for culture for 12 h. Then diluting the obtained Escherichia coli culture solution with the fresh LB liquid culture medium to an OD600 of 0.035.
(§5) respectively taking 4 parts of the sterilized Escherichia coli culture solution (2.0 mL each) into 4 sterile test tubes, numbered as 1, 2, 3, and 4. […]

Pseudomonas aeruginosa = tested on: Pseudomonas aeruginosa
Procedure: as §1, §2, §3, §4, §5

Bacillus subtilis = tested on: Bacillus subtilis
Procedure: as §1, §2, §3, §4, §5

Staphylococcus aureus = tested on: Staphylococcus aureus
Procedure: as §1, §2, §3, §4, §5

[2] = Embodiment 5, 37° C., azoRIRIRARazo-NH2 20 μM, two-arm β-cyclodextrin 20 μM
[3] = Embodiment 4, 37° C., azoRARARVRazo-NH2 30 μM, three-arm β-cyclodextrin 20 μM
[4] = Embodiment 6, 37° C., azoKAKAKazo-NH2 60 μM, three-arm β-cyclodextrin 40 μM
[5] = Embodiment 2, 37° C., peptide 30 μM, cyclodextrin 30 μM
[6] = Embodiment 9, 37° C., azoKVKVKVKazo-NH2 30 μM, three-arm β-cyclodextrin 10 μM, two-arm β-cyclodextrin 15 μM
[7] = Embodiment 3, 37° C., azoKLKLKLKazo-NH2 30 μM, three-arm β-cyclodextrin 20 μM
[8] = Embodiment 7, 37° C., azoRARVRazo-NH2 50 μM, three-arm β-cyclodextrin 33.33 μM

Row | SMILES | optical density (OD600) at end of culture [1, 2] | optical density (OD600) at start of culture [1, 2] | optical density (OD600) at start of incubation ([1]; Embodiment 1, 37° C., 0 min, azoKVKVKVKazo-NH2 30 μM, three-arm β-cyclodextrin 20 μM) | optical density (OD600) at end of incubation ([1]; Embodiment 1, 37° C., 9 h (540 min), azoKVKVKVKazo-NH2 30 μM, three-arm β-cyclodextrin 20 μM) | optical density (OD600) at end of culture (Pseudomonas aeruginosa; [3]) | optical density (OD600) at start of culture (Pseudomonas aeruginosa; [3]) | optical density (OD600) at end of culture (Pseudomonas aeruginosa; [4]) | optical density (OD600) at start of culture (Pseudomonas aeruginosa; [4]) | optical density (OD600) at end of culture (Bacillus subtilis; [5]) | optical density (OD600) at start of culture (Bacillus subtilis; [5]) | optical density (OD600) at end of culture (Bacillus subtilis; [6]) | optical density (OD600) at start of culture (Bacillus subtilis; [6]) | optical density (OD600) at end of culture (Staphylococcus aureus; [7]) | optical density (OD600) at start of culture (Staphylococcus aureus; [7]) | optical density (OD600) at end of culture (Staphylococcus aureus; [8]) | optical density (OD600) at start of culture (Staphylococcus aureus; [8])
1 | OCC1OC2OC3C(CO)OC(OC4C(CO)OC(OC5C(Cn6cc(COc7ccc(OCc8cn(CC9OC%10OC%11C(CO)OC(OC%12C(CO)OC(OC%13C(CO)OC(OC%14C(CO)OC(OC%15C(CO)OC(OC%16C(CO)OC(OC9C(O)C%10O)C(O)C%16O)C(O)C%15O)C(O)C%14O)C(O)C%13O)C(O)C%12O)C(O)C%11O)nn8)cc7)nn6)OC(OC6C(CO)OC(OC7C(CO)OC(OC8C(CO)OC(OC1C(O)C2O)C(O)C8O)C(O)C7O)C(O)C6O)C(O)C5O)C(O)C4O)C(O)C3O (stereo not drawn) [two-arm β-cyclodextrin] | 1.21 | 0.034 | – | – | – | – | – | – | – | – | – | – | – | – | – | –
2 | OCC1OC2OC3C(CO)OC(OC4C(CO)OC(OC5C(Cn6cc(-c7cc(-c8cn(CC9OC%10OC%11C(CO)OC(OC%12C(CO)OC(OC%13C(CO)OC(OC%14C(CO)OC(OC%15C(CO)OC(OC%16C(CO)OC(OC9C(O)C%10O)C(O)C%16O)C(O)C%15O)C(O)C%14O)C(O)C%13O)C(O)C%12O)C(O)C%11O)nn8)cc(-c8cn(CC9OC%10OC%11C(CO)OC(OC%12C(CO)OC(OC%13C(CO)OC(OC%14C(CO)OC(OC%15C(CO)OC(OC%16C(CO)OC(OC9C(O)C%10O)C(O)C%16O)C(O)C%15O)C(O)C%14O)C(O)C%13O)C(O)C%12O)C(O)C%11O)nn8)c7)nn6)OC(OC6C(CO)OC(OC7C(CO)OC(OC8C(CO)OC(OC1C(O)C2O)C(O)C8O)C(O)C7O)C(O)C6O)C(O)C5O)C(O)C4O)C(O)C3O (stereo not drawn) [three-arm β-cyclodextrin] | – | – | 0.043 | 1.61 | 1.15 | 0.039 | 1.25 | 0.035 | 1.15 | 0.036 | 1.23 | 0.039 | 1.25 | 0.043 | 1.22 | 0.041
